Test results published in the kinase profiling compilation of Christmann-Franck et al. (2016).
pKd: −log10 of the molar value.

Legend:
Assay in all cases: KINOMEscan competition binding
PIK3C2B (human) = PIK3C2B (human) (UniProt O00750); details: compound 10.0 µM
NEK3 (human) = NEK3 (human) (UniProt P51956); details: compound 10.0 µM
PDGFRB (human) = PDGFRB (human) (UniProt P09619); details: compound 10.0 µM
DDR2 (human) = DDR2 (human) (UniProt Q16832); details: compound 10.0 µM
[1] = tested on: FLT3 (human), P36888 [D835Y]; details: compound 10.0 µM
CPK1 (P.falciparum) = details: compound 10.0 µM
DYRK1A (human) = DYRK1A (human) (UniProt Q13627); details: compound 10.0 µM
MAPKAPK5 (human) = MAPKAPK5 (human) (UniProt Q8IW41); details: compound 10.0 µM
[2] = tested on: BRAF (human), P15056 [V600E]; details: compound 10.0 µM
FGFR4 (human) = FGFR4 (human) (UniProt P22455); details: compound 10.0 µM
EPHB6 (human) = EPHB6 (human) (UniProt O15197); details: compound 10.0 µM
NEK4 (human) = NEK4 (human) (UniProt P51957); details: compound 10.0 µM
EPHA7 (human) = EPHA7 (human) (UniProt Q15375); details: compound 10.0 µM
[3] = target: JAK2 JH1 catalytic (human) (UniProt O60674); details: compound 10.0 µM
CSNK1A1 (human) = CSNK1A1 (human) (UniProt P48729); details: compound 10.0 µM
LYN (human) = LYN (human) (UniProt P07948); details: compound 10.0 µM
[4] = tested on: FLT3 (human), P36888 [K663Q]; details: compound 10.0 µM
TIE1 (human) = TIE1 (human) (UniProt P35590); details: compound 10.0 µM
PKN2 (human) = PKN2 (human) (UniProt Q16513); details: compound 10.0 µM
STK4 (human) = STK4 (human) (UniProt Q13043); details: compound 10.0 µM
RIPK1 (human) = RIPK1 (human) (UniProt Q13546); details: compound 10.0 µM
STK32A (human) = STK32A (human) (UniProt Q8WU08); details: compound 10.0 µM
IGF1R (human) = IGF1R (human) (UniProt P08069); details: compound 10.0 µM
ERBB2 (human) = ERBB2 (human) (UniProt P04626); details: compound 10.0 µM
CSNK2A1 (human) = CSNK2A1 (human) (UniProt P68400); details: compound 10.0 µM
PIP4K2B (human) = PIP4K2B (human) (UniProt P78356); details: compound 10.0 µM
MAPK6 (human) = MAPK6 (human) (UniProt Q16659); details: compound 10.0 µM
[5] = tested on: FGFR3 (human), P22607 [G697C]; details: compound 10.0 µM
YES1 (human) = YES1 (human) (UniProt P07947); details: compound 10.0 µM
LRRK2 (human) = LRRK2 (human) (UniProt Q5S007)
PAK1 (human) = PAK1 (human) (UniProt Q13153); details: compound 10.0 µM
CLK3 (human) = CLK3 (human) (UniProt P49761); details: compound 10.0 µM
MAP3K5 (human) = MAP3K5 (human) (UniProt Q99683); details: compound 10.0 µM
AAK1 (human) = AAK1 (human) (UniProt Q2M2I8); details: compound 10.0 µM
TAOK3 (human) = TAOK3 (human) (UniProt Q9H2K8); details: compound 10.0 µM
FER (human) = FER (human) (UniProt P16591); details: compound 10.0 µM
TGFBR1 (human) = TGFBR1 (human) (UniProt P36897); details: compound 10.0 µM
MAPK15 (human) = MAPK15 (human) (UniProt Q8TD08); details: compound 10.0 µM
MAP2K5 (human) = MAP2K5 (human) (UniProt Q13163); details: compound 10.0 µM
AURKA (human) = AURKA (human) (UniProt O14965)
PKMYT1 (human) = PKMYT1 (human) (UniProt Q99640); details: compound 10.0 µM

AURKA (human), sequence (O14965 whole entry, looked up): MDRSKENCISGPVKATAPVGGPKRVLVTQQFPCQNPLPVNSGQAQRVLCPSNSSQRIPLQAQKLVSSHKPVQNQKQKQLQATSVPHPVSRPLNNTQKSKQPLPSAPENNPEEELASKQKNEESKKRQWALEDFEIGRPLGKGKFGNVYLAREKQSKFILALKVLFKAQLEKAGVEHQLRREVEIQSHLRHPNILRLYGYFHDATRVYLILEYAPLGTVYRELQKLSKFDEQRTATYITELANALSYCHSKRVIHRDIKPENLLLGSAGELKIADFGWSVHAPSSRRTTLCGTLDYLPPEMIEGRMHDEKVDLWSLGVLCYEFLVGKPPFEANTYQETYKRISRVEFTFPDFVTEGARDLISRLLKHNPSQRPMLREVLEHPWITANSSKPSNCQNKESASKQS
LRRK2 (human), sequence (Q5S007 whole entry, looked up): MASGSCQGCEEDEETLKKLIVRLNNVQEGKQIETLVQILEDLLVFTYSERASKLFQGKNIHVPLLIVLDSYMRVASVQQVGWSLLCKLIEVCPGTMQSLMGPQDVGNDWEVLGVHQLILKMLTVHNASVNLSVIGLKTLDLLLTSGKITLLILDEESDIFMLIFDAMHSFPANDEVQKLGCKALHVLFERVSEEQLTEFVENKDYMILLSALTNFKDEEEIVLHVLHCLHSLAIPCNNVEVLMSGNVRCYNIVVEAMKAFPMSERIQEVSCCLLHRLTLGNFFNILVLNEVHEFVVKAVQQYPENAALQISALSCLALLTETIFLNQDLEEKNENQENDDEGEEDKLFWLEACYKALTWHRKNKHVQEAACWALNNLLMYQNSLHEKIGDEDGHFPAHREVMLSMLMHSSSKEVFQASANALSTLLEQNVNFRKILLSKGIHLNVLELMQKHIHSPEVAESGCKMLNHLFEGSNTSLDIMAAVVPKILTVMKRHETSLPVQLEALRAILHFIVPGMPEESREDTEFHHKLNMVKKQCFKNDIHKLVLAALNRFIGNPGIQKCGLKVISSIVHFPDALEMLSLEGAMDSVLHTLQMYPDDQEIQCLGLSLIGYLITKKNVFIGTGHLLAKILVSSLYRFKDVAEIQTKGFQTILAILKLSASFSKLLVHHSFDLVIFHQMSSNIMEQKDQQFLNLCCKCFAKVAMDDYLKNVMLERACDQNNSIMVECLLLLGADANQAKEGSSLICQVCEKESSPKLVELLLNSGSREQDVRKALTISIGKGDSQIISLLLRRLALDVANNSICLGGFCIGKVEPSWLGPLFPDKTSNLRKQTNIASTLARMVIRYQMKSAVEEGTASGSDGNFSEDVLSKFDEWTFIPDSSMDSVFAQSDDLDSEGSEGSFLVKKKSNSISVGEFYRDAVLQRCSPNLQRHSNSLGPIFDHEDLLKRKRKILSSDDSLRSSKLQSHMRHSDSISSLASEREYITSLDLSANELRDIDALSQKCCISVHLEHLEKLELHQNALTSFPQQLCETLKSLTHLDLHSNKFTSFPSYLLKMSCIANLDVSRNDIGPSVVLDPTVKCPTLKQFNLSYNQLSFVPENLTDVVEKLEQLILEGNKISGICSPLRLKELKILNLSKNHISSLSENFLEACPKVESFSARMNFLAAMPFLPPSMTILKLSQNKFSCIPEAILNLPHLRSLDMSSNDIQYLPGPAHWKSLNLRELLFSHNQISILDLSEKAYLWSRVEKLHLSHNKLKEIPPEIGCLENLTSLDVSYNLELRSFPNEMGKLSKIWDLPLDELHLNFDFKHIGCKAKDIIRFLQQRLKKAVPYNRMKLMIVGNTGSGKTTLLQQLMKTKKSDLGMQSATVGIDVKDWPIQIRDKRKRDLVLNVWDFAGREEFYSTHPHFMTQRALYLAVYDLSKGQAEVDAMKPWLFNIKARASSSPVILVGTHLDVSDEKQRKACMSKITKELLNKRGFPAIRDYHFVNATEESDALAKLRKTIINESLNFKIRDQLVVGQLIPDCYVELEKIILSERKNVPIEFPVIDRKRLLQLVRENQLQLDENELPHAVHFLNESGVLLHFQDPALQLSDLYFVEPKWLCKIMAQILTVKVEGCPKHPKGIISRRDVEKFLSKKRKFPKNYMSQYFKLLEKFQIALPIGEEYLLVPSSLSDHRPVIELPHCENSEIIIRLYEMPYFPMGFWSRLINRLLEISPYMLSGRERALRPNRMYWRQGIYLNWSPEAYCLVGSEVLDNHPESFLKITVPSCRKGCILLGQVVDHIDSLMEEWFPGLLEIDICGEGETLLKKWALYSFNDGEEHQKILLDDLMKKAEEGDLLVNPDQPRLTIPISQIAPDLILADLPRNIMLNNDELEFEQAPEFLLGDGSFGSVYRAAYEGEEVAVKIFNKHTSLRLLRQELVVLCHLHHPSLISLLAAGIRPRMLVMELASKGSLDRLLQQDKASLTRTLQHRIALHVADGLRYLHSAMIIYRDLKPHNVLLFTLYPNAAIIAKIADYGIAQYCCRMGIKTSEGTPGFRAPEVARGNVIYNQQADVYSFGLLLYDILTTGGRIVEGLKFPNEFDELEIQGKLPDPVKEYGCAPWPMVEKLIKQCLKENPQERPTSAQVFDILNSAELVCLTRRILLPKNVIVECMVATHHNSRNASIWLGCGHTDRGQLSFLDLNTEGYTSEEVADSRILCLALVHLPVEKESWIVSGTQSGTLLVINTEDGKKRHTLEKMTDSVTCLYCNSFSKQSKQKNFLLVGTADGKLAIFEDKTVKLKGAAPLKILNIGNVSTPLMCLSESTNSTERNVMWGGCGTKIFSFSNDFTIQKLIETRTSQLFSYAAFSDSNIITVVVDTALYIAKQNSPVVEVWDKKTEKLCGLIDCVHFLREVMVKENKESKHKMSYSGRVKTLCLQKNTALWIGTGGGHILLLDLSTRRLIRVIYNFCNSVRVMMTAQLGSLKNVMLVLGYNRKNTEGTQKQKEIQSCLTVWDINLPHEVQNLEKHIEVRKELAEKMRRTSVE
ERBB2 (human), sequence (P04626 whole entry, looked up): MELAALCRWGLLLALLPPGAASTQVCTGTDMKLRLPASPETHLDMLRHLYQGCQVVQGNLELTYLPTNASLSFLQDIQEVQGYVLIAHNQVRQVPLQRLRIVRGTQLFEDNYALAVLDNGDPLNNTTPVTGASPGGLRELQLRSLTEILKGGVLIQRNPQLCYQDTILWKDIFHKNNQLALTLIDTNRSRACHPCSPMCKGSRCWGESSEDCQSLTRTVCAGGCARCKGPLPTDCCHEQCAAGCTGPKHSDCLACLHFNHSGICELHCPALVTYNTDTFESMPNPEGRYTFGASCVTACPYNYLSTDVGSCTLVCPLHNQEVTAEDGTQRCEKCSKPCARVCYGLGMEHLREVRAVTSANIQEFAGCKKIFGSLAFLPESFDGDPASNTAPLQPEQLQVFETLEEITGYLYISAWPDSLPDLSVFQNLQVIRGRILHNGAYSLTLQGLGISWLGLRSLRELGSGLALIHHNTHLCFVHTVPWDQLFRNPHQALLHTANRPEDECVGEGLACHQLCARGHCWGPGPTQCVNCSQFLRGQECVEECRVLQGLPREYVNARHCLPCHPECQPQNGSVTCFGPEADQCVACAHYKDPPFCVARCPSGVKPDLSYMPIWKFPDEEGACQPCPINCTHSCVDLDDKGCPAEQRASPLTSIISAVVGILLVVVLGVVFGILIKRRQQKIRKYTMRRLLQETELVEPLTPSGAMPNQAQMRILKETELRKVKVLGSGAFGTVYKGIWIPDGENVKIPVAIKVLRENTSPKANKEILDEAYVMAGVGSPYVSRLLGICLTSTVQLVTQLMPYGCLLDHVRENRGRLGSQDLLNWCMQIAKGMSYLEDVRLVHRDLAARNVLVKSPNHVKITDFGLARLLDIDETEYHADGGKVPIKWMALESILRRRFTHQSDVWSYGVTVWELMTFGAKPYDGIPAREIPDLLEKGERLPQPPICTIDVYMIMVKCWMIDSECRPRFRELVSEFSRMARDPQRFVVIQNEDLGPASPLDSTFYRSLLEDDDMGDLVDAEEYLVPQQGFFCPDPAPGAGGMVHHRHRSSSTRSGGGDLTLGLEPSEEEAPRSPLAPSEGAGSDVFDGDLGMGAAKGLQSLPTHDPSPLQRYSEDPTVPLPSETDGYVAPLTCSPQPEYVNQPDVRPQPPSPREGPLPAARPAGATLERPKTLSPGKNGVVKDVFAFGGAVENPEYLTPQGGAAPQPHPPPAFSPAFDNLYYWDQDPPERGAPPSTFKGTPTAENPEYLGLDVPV
BRAF (human), P15056 [V600E], sequence (P15056 whole entry V600E, looked up): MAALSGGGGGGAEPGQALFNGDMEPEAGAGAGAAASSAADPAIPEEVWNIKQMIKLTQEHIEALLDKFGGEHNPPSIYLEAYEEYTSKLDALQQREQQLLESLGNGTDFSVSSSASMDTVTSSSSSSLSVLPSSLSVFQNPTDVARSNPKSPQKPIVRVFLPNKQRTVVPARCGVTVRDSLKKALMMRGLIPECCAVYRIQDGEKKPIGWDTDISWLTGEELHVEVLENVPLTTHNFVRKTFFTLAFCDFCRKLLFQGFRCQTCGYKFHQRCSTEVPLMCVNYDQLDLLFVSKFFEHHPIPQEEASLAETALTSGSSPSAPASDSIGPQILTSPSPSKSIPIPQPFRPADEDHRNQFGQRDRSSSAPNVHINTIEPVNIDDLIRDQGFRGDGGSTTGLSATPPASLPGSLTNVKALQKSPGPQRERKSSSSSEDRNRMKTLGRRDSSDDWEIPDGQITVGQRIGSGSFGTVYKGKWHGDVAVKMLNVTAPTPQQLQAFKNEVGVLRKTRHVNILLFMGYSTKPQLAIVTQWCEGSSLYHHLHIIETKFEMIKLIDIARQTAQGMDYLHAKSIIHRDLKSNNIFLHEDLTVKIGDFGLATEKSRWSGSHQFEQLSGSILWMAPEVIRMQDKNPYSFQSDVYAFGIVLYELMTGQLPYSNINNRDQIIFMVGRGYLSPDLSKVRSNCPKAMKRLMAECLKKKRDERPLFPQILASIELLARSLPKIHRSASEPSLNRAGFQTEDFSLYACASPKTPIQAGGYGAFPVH

SMILES: COc1cc(C(=O)N2CCC(N3CCN(C)CC3)CC2)ccc1Nc1ncc2c(n1)N(C)c1ccccc1C(=O)N2C
- kinase still bound, per cent of control (PIK3C2B (human)): 100%
- kinase still bound, per cent of control (NEK3 (human)): 100%
- kinase still bound, per cent of control (PDGFRB (human)): 100%
- kinase still bound, per cent of control (DDR2 (human)): 100%
- kinase still bound, per cent of control [1]: 100%
- kinase still bound, per cent of control (CPK1 (P.falciparum)): 100%
- kinase still bound, per cent of control (DYRK1A (human)): 99%
- kinase still bound, per cent of control (MAPKAPK5 (human)): 97%
- kinase still bound, per cent of control [2]: 100%
- kinase still bound, per cent of control (FGFR4 (human)): 28%
- kinase still bound, per cent of control (EPHB6 (human)): 31%
- kinase still bound, per cent of control (NEK4 (human)): 95%
- kinase still bound, per cent of control (EPHA7 (human)): 97%
- kinase still bound, per cent of control [3]: 70%
- kinase still bound, per cent of control (CSNK1A1 (human)): 100%
- kinase still bound, per cent of control (LYN (human)): 100%
- kinase still bound, per cent of control [4]: 97%
- kinase still bound, per cent of control (TIE1 (human)): 100%
- kinase still bound, per cent of control (PKN2 (human)): 95%
- kinase still bound, per cent of control (STK4 (human)): 100%
- kinase still bound, per cent of control (RIPK1 (human)): 99%
- kinase still bound, per cent of control (STK32A (human)): 100%
- residual activity (IGF1R (human)): 96%
- kinase still bound, per cent of control (ERBB2 (human)): 100%
- kinase still bound, per cent of control (CSNK2A1 (human)): 100%
- kinase still bound, per cent of control (PIP4K2B (human)): 100%
- kinase still bound, per cent of control (MAPK6 (human)): 100%
- kinase still bound, per cent of control [5]: 85%
- kinase still bound, per cent of control (YES1 (human)): 100%
- pKd (LRRK2 (human)): 7.70
- kinase still bound, per cent of control (LRRK2 (human); compound 10.0 µM): 0%
- kinase still bound, per cent of control (PAK1 (human)): 95%
- kinase still bound, per cent of control (CLK3 (human)): 95%
- kinase still bound, per cent of control (MAP3K5 (human)): 100%
- kinase still bound, per cent of control (AAK1 (human)): 84%
- kinase still bound, per cent of control (TAOK3 (human)): 24%
- kinase still bound, per cent of control (FER (human)): 51%
- kinase still bound, per cent of control (TGFBR1 (human)): 100%
- kinase still bound, per cent of control (MAPK15 (human)): 100%
- kinase still bound, per cent of control (MAP2K5 (human)): 85%
- pKd (AURKA (human)): 5.80
- kinase still bound, per cent of control (AURKA (human); compound 10.0 µM): 1.2%
- kinase still bound, per cent of control (PKMYT1 (human)): 80%
